Experimental data from patent publication US20210283097A1, “METHODS OF DIAGNOSING AND TREATING ALZHEIMER'S DISEASE WITH S-EQUOL” (Ausio Pharmaceuticals, LLC, priority 2016, published 2021).
“Also recorded” adds a separate entry of the source.

Tests used:
[1] = test system: platelet mitochondria cytochrome oxidase (COX); experiment: Platelet mitochondria COX activity referenced to CS activity (COX/CS) in Alzheimer's disease subjects, single-blind pilot clinical study; assay type: in vivo, human; settings: for COX/CS Visit 2 (Mean + SEM): after two weeks of S-equol 10 mg twice a day
Method: (§1) Alzheimer's disease subjects were recruited through the University of Kansas Alzheimer's Disease Center (ADC). The ADC maintains a clinical cohort whose routine characterizations include Clinical Dementia Rating (CDR) scale ratings, uniform data set (UDS) cognitive testing, and APOE genotyping. The diagnosis of clinic cohort participants is primarily based on CDR and UDS data, and is determined through a consensus conference that includes subspecialty-trained cognitive neurologists and an expert neuropsychologist. Subjects diagnosed with Alzheimer's disease further meet current criteria for that diagnosis in McKhann et al., Alzheimers Dement, 7 (2011) 263-269.
(§2) To qualify for the study, participants had to be female with very mild (CDR 0.5) or mild (CDR 1) Alzheimer's disease. Each participant was required to have a study partner. As part of the informed consent process, the subjects and study partners were told that during different parts of the study the participants would receive either an S-equol capsule or an inert placebo. The placebo could not be distinguished from the S-equol by sight, touch, or taste so although the investigators knew whether participants at any given point were receiving S-equol or placebo, the participants themselves were blind to the actual treatment. The S-equol and placebo capsule were provided by Ausio Pharmaceuticals, LLC (Cincinnati, Ohio).
(§3) Subjects received a two week supply of medication, which uniformly consisted of placebo, and were instructed to take the study medication twice a day. At the end of this initial two-week period participants returned to the ADC clinical trials unit for their first study visit (visit 1; lead-in evaluation). Visit 1 procedures included an assessment of study medication compliance, vital signs, a query for perceived side effects, the Montreal Cognitive Assessment (MoCA), and a 40 ml phlebotomy; the blood was used to measure platelet mitochondria cytochrome oxidase (COX) and citrate synthase (CS) activities. At the completion of this visit the next two weeks of study medication was dispensed, which uniformly consisted of 10 mg S-equol capsule.
(§4) At the end of this second two-week period participants returned to the ADC clinical trials unit for their second study visit (visit 2; active treatment evaluation). The same procedures were performed during the lead-in evaluation and dispensed the next two weeks of study medication, which at this point uniformly consisted of placebo.
(§5) At the end of this final two-week period the participants returned to the ADC clinical trials unit for their third study visit (visit 3; wash-out evaluation). The lead-in and active treatment evaluation procedures were performed again, which completed participation in this single-blind study.
Forty milliliter blood samples were collected in tubes containing acid-citrate-dextrose (ACD) tubes as an anticoagulant, and maintained at room temperature. Within 24 hours of phlebotomy the blood was processed by the ADC Mitochondrial Genomics and Metabolism Core. To initiate the processing procedure, platelets were isolated by centrifugation and enriched mitochondrial fractions prepared using previously described methods. Such procedures involved nitrogen cavitation to rupture platelets followed by centrifugation to collect mitochondria.
The protein concentrations of the enriched mitochondrial fractions were measured using a BCA protein assay kit (BioRad, Hercules, Calif.). COX Vmax activity was determined as a pseudo first order-rate constant (sec−1/mg) by measuring the oxidation of reduced cytochrome c at 550 nm.
In addition to measuring COX activity, each sample's citrate synthase (CS) Vmax activity (nmol/min/mg) was measured. This assay was performed spectrophotometrically by following the formation of 5-thio-2-nitrobenzoate (412 nm) following the addition of 100 μM oxaloacetate at 30° C. […]

[2] = Montreal Cognitive Assessment (MoCA) in Alzheimer's disease subjects, single-blind pilot clinical study; assay type: in vivo, human; settings: for MoCA Visit 2 (Mean + SEM): visit 2 = after two weeks of S-equol 10 mg twice a day; for percent MoCA score change between visit 1 and visit 2 (trend): FIG. 1
Method: as §1, §2, §3, §4, §5
Secondary outcomes included a safety analysis of the S-equol 10 mg twice per day dose and an analysis of MoCA scores.
In addition to summarizing MoCA scores by means and standard errors, the percent change between visit 1 and visit 2 scores, as well as the percent change between visit 1 and visit 3 scores, was calculated for each participant.

[3] = Safety analysis of S-equol 10 mg twice per day in Alzheimer's disease subjects; assay type: in vivo, human; settings: 10 mg twice per day for two weeks, Alzheimer's disease patients
Method: as §3, §4
At the end of this final two-week period the participants returned to the ADC clinical trials unit for their third study visit (visit 3; wash-out evaluation). The lead-in and active treatment evaluation procedures were performed again, which completed participation in this single-blind study. […]

rat hippocampal neurons = settings: cited from earlier work
cytochrome oxidase (COX) = settings: brains from ovariectomized mice; cited from earlier work

## Oc1ccc([C@H]2COc3cc(O)ccc3C2)cc1 [S-equol]
[1]; APOE4 Carriers, 8 participants
  COX/CS Visit 2 (Mean + SEM): 4.3E−05 ± 3.5E−06
[1]; APOE4 non-Carriers, Outlier Excluded, 6 participants
  COX/CS Visit 2 (Mean + SEM): 4.7E−05 ± 7.1E−06
[1]; APOE4 non-Carriers, Outlier Included, 7 participants
  COX/CS Visit 2 (Mean + SEM): 9.2E−05 ± 4.6E−05
[1]; FIGS. 3(A) and 3(B)
  percent COX/CS change between visit 1 and visit 2 (trend), non-APOE4 carriers versus APOE4 carriers: trended higher
[1]; Table 3
  difference in mean COX/CS values between visits, or between APOE4 carriers and non-carriers: No significant differences
[1]; Total, Outlier Excluded, 14 participants
  COX/CS Visit 2 (Mean + SEM): 4.5E−05 ± 3.5E−06
[1]; Total, Outlier Included, 15 participants
  COX/CS Visit 2 (Mean + SEM): 6.6E−05 ± 2.2E−05
[1]; slope visit 1 to 2 greater than slope visit 2 to 3, COX activity referenced to CS activity
  participants with a positive COX/CS response pattern (responders): 11 of the 15
[2]; APOE4 Carriers, 8 participants
  MoCA Visit 2 (Mean + SEM): 15.8 ± 2.5
[2]; APOE4 carriers
  percent MoCA score change between visit 1 and visit 2 (trend): trended in a downward direction
[2]; APOE4 non-Carriers, 7 participants
  MoCA Visit 2 (Mean + SEM): 13.3 ± 2.1
[2]; APOE4 non-carriers
  percent MoCA score change between visit 1 and visit 2 (trend): upward direction
[2]; Table 2
  difference in mean MoCA scores between visits, or between APOE4 carriers and non-carriers: No significant differences
[2]; Total, 15 participants
  MoCA Visit 2 (Mean + SEM): 14.6 ± 6.6
[3]
  adverse events: No treatment-related adverse events; also recorded: No adverse events occurred
Rat hippocampal neurons
  respiratory and maximal glycolysis fluxes: increase
Cytochrome oxidase (COX)
  cytochrome oxidase (COX) activity and COX1 protein levels: increase
